System: Septoria tritici
Assay: Speckled leaf blotch pathogen Septoria tritici in the microtiter test
Format: cell-based
Details: 125 ppm, microtiter plate, absorption at 405 nm on day 7 after inoculation
Method: The stock solution is pipetted into a microtiter plate (MTP) and diluted to the stated active compound concentration using an aqueous, malt-based nutrient medium for fungi. An aqueous spore suspension of Septoria tritici was then added. The plates were placed in a water vapor-saturated chamber at temperatures of 18° C. Using an absorption photometer, the MTPs were measured at 405 nm on day 7 after the inoculation. The parameters measured were compared to the growth of the active compound-free control variant and the fungus- and active compound-free blank value to determine the relative growth in % of the pathogens in the individual active compounds. The relative growth at 125 ppm of compound 1 was 0%.

Work on Cc1nc2ncnn2c(N2CCC(C)CC2)c1-c1ncncc1Cl [compound 1, 6-(5-chloropyrimidin-4-yl)-5-methyl-7-(4-methylpiperidin-1-yl)-[1,2,4]triazolo[1,5-a]pyrimidine] yielded a relative growth of 0%.
